Measured values published in patent US20220135678A1, “METHODS AND COMPOSITIONS TO IMPROVE THE SAFETY AND EFFICACY OF CELLULAR THERAPIES” (University of Southern California, priority 2019, published 2022).

Columns and labels:
[1] = tested on: CD19 on RAJI (CD19+) cells; test: CD19 surface expression on transduced RAJI cells, flow cytometry with PE-conjugated FMC63 antibody (antigen masking); type: cell-based
From the text: A panel of CARs targeting CD19 were generated using antigen binding domains derived from FMC63 (SEQ ID NO: 205), hu-mROO5-1 (SEQ ID NO: 211) and CD19-MM (SEQ ID NO: 209) scFVs respectively. […] The constructs also co-expressed a puromycin resistance gene (PAC). The lentiviral vectors encoding the different CAR constructs were used to infect RAJI (CD19+) cells. The cells were selected with puromycin. Flow cytometry with PE-conjugated FMC63 antibody was used to detect the expression of CD19 on the surface of the CAR-expressing cells.
In another exemplary experiment, the experiment is repeated with lentiviral vectors encoding FMC63- or hum-mROO5-1-based cTCR, Ab-TCR, TFPαβ and TFPγδ.
RAJI cells were infected with the following lentiviral vectors encoding antigen masking receptors targeting CD19 and carrying protein degradation motifs FKBP12. […] RAJI cells were selected with puromycin and examined for CD19 expression by cell surface staining with FMC63 antibody. […] Subsequently, the cells were treated with dTAG-13 (100 nM) for 24-72 h to induce degradation of the AMR.

[2] = tested on: RAJI cells; test: Killing of AMR-expressing RAJI cells by CD19-CAR-T cells or Blinatumomab; type: cell-based; conditions: exposure to dTAG-13
Method: T cells mediated induction of lysis of target cells was assayed by increase of luciferase activity as measured by BioTek synergy plate reader by directly injecting 0.5×CTZ assay buffer containing native coeloentrazine (Nanaolight).

[3] = tested on: CD33 on hematopoietic stem cells and progenitor cells; test: HSPC expressing AMR-dTAG or AMR-ShieldTag targeting CD33, in vitro; type: cell-based
[4] = tested on: Molm14 AML leukemia cells; test: AMR-dTAG or AMR-ShieldTag HSPC transplanted into NSG mice with Molm14 cells, CD33 CAR-T; type: in vivo
From the text: (§1) The transduced cells are also transplanted into NSG mice along with Molm14 AML leukemia cells.
as §1

[5] = biological target: CD19 (on RAJI cells) (UniProt P15391); test: cell surface staining of control RAJI cells with FMC63 antibody, flow cytometry
[6] = tested on: NALM6 (B cell acute lymphocytic leukemia cells); test: Infection of NALM6 cells by lentivirus encoding a non-FMC63 CD19 CAR; type: cell-based; conditions: CAR scFV derived from an antibody other than FMC63
Method: The experiment in the preceding example is repeated using a lentiviral vector encoding a CD19 CAR (SEQ ID NO: 11920) comprising a scFV derived from an antibody other than FMC63 as its antigen-binding domain. The CAR is cloned in the pCCLc-MNDU3-WPRE lentiviral vector (SEQ ID NO: 3) and the resulting vector is packaged using VSVG as described in the preceding example. […] In contrast, incubation with Rituximab, a CD20 antibody, had no effect.

[7] = biological target: CD19 (on RAJI cells) (UniProt P15391); test: cell-based or functional assay
[8] = Patient with cytokine release syndrome and neurological complications after haploidentical stem cell transplant; type: in vivo, human
Method: A patient with myelofibroris receives haploidentical peripheral blood stem cell transplant using their child as a donor. The patient receives reduced intensity conditioning with Melphalan (100 mg/m2 on day −6), Fludarabine (25 mg/m2×4 on days −5 to −2) and total body irradiation (TBI) of 200 cGy on day −1. Following infusion of haploidentical stem cells on Day 0, the patient receives post-transplant Cyclophosphamide 50 mg/kg×2 on days+3 and +4 and intravenous hydration with normal saline at rate of 250 ml/h for 24 hours after the completion of cyclophosphamide.

UniProt P15391, sequence (P15391 20-556 limits assumed): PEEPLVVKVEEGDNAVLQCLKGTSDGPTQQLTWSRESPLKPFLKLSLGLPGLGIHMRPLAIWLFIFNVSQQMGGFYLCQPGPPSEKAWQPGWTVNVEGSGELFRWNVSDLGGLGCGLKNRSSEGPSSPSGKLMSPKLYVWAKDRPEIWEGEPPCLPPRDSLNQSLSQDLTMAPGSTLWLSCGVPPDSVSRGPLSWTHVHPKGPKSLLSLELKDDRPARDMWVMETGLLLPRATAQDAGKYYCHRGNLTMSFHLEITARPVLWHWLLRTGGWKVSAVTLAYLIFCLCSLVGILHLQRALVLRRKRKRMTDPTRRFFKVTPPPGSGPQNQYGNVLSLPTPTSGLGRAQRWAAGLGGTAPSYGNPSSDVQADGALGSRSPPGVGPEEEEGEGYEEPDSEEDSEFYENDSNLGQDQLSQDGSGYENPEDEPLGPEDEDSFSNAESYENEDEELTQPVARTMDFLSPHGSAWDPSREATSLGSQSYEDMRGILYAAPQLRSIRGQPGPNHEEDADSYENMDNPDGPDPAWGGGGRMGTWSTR

For `CC[C@H](C(=O)N1CCCC[C@H]1C(=O)O[C@H](CCc1ccc(OC)c(OC)c1)c1ccccc1OCC(=O)NCCCCCCOc1cccc2c1C(=O)N(C1CCC(=O)NC1=O)C2=O)c1cc(OC)c(OC)c(OC)c1` (some centres unmarked) [dTAG-13], the “induction of CD19 expression with increasing concentration” value ([1]; 1 pM to 100 nM) was “dose dependent induction”, the “CD19 expression on AMR-expressing RAJI cells after ligand” value ([1]; 100 nM for 24-72 h, FMC63-PE staining, before treatment […]) was 68.98% and the “killing of AMR-expressing RAJI cells by CD19-CAR-T cells or Blinatumomab upon exposure to ligand” value [2] was “sensitized”. The “AMR fusion protein after ligand treatment in vitro” value ([3]; 100 nM) was “degradation of AMR fusion protein” and the “AMR-dTAG fusion protein in animals after ligand” value ([4]; 25 mg/kg daily) was “degradation of the AMR-dTAG fusion protein”.

For FMC63-PE mouse monoclonal antibody, the % of control RAJI cells stained for CD19 by FMC63 antibody [5] was 99.2%.

With Rituximab: a CD20 antibody the “infection of NALM6 by the CD19 CAR (SEQ ID NO: 11920)” value [6] was “no effect”.

With isotype control mouse IgG (antibody) the % EGFP + RAJI Cells (infection with CD19 CAR lentivirus after incubation with Control IgG-PE) [7] was 29.6%, the % EGFP + RAJI Cells (infection with CD19 CAR lentivirus after incubation with control IgG) [7] was 43.3% and the % EGFP + RAJI Cells (infection with the negative control MSLN-237-HL mesothelin CAR lentivirus after incubation with Control IgG-PE) [7] was 20.4%.

For `CC[C@H](C(=O)N1CCCC[C@H]1C(=O)O[C@H](CCc1ccc(OC)c(OC)c1)c1cccc(OCCN2CCOCC2)c1)c1cc(OC)c(OC)c(OC)c1` [Shield-1], the “AMR fusion protein after ligand treatment is stopped, in vitro” value ([3]; Shield-1 treatment stopped) was “degradation of AMR fusion protein” and the “CD33 AMR-ShieldTag fusion protein in animals after ligand treatment is stopped” value ([4]; Shield-1 treatment stopped) was “degradation of the CD33 AMR-ShieldTag fusion protein”.

With “Tocilizumab: administered 600 mg i.v. for cytokine release syndrome” the blood pressure ([8]; 600 mg i.v. on day 5 after transplantation, patient with CRS after haploidentical stem cell transplant) was “stabilization of blood pressure” and the “neurological / mental status” value ([8]; after Tocilizumab 600 mg i.v. on day 5 after transplantation) was “continues to have neurological deterioration”.
